The data set can be described thus: Induction of endotoxin shock in the mouse. The settings on record: in vivo, read-out: LD₅₀. The text has this: The test method is essentially as described in GB 2'179'945 A and DE 37'30'905.

Molecules are shown by their SMILES.

For the compound `CCCCCCC(=O)N[C@H](CCC(=O)N[C@H](/C=C/CC(O)C(=O)OCCCC)C(=O)N[C@@H](C)C(=O)OCC)C(=O)OCc1ccccc1` (stereo partly drawn) [Example 1, {N-[N′-Heptanoyl-(R)-γ-glutamyl-(α-benzylester)]-(R)-α-[2-(RS)-hydroxypent-4-enoic acid butyl ester-5-yl]glycyl]-(S)-alanine ethyl ester], the LD50 stood at 12 mg/kg.

(Values after patent EP0417803A1, “[N-(gamma-glutamyl)glycyl] alanine derivatives” (SANDOZ LTD., priority 1989, dated 1991).)
